# Assay results taken from patent publication US5139945A, “Thermostable alginate lyase from Bacillus steraothermophilus” (Novo Industri A/S, priority 1988, dated 1992).
# System: Alginate lyase from Bacillus stearothermophilus
# Experiment: Effects of chemicals commonly used in water cooling systems on alginate lyase activity
# Assay type: biochemical
# Conditions: for Inhibition (%) of Chemicals on Enzyme Activity: chemical at 10 mM final concentration, 16 hours incubation; for inhibition of the enzyme (in words): mineral content of cooling water
# Method: Alginate lyase activity (increase in optical density at 230 nm) at 55° C. was monitored with sodium alginate as the substrate. Constant amounts of substrate, enzyme and MgCl2 (10 mM) were present in all reactions. Citrate-phosphate buffer was used between pH 5.0 and 6.5 and phosphate buffer was used between pH 6.0 and 8.0.
# EDTA (ethylene diamine tetraacetate), NaCl, FeSO4, NaAlO2, Na2 MoO4, Zn, glutaraldehyde hydrazine and sodium nitrite were tested at the final concentration of 10 mM. Alginate lyase activity was monitored as described in Example 2 over 16 hours incubation.
Inhibition (%) of Chemicals on Enzyme Activity [%],Compound,inhibition of the enzyme (in words)
0,"O=C(O)CN(CCN(CC(=O)O)CC(=O)O)CC(=O)O [EDTA, ethylene diamine tetraacetate]",
0,[Na+].[Na+].[O]=[Mo](=[O])([O-])[O-] [Na2 MoO4],
0,[Na+].[O]=[Al-]=[O] [NaAlO2],
43.7,[Zn] [Zn],partially inhibit
0,O=CCCCC=O [glutaraldehyde],

# More lines, now with the values behind:
Compound,Inhibition (%) of Chemicals on Enzyme Activity [%],inhibition of the enzyme (in words)
O=S(=O)([O-])[O-].[Fe+2] [FeSO4],0,
[Cl-].[Na+] [NaCl],48.7,partially inhibit
"O=N[O-].[Na+] [NaNO2, sodium nitrite]",0,
NN [hydrazine],0,
